Source: patent US20230167114A1, “MACROCYCLIC JAK INHIBITOR AND USE THEREOF” (Biopolar Hongye (Guangdong) Pharmaceutical Co., Ltd., priority 2020, published 2023)

What was measured:
Format in all cases: biochemical
JAK1 = JAK1 (Homo sapiens, UniProt P23458); assay: JAK kinase activity, homogeneous time-resolved fluorescence (JAK1 reaction system); details: ATP 2 μM, JAK1 protein 0.2 ng/μL; read-out: JAK 1 activity
Description: (§1) The activity measurement method of JAK kinase was to use homogeneous time-resolved fluorescence technique. The reaction was performed in 384 shallow well plates with a total reaction volume of 10 μL. The mixture of kinase protein, compound, ATP and substrate was carried out in a reaction buffer of 50 mM Hepes (pH7.0), NaN3 0.02%, BSA 0.01%, 0.1 mM orthocanadate, 5 mM MgCl2, and 1 mM DTT. After reacting for 1 hour, antibody capable of recognizing substrate phosphorylation and dye XL-615 and detection buffer (Cisbio) containing EDTA were added to the system. The reaction signal of kinase was detected by PE company's porous plate detector. The parameter settings were excitation light at 320 nm, emission light at 615 nm and 665 nm. The activity of JAK is indirectly reflected by the signal ratio of 665 nm and 615 nm. In the reaction, the background well without enzyme and the total enzyme activity well without compound were set.
(§2) The IC50 value of the compound inhibiting protein was obtained by the formula: Y=100/(1+10^((Log IC50−X)*HillSlope)).
In JAK1 reaction system, the concentration of ATP was 2 μM, and the concentration of JAK1 protein was 0.2 ng/μL.

TYK2 = TYK2 (Homo sapiens, UniProt P29597); assay: JAK kinase activity, homogeneous time-resolved fluorescence (TYK2 reaction system); details: ATP 2 μM, TYK2 protein 0.2 ng/μL; read-out: TYK 2 activity
TYK2, sequence (P29597 whole entry): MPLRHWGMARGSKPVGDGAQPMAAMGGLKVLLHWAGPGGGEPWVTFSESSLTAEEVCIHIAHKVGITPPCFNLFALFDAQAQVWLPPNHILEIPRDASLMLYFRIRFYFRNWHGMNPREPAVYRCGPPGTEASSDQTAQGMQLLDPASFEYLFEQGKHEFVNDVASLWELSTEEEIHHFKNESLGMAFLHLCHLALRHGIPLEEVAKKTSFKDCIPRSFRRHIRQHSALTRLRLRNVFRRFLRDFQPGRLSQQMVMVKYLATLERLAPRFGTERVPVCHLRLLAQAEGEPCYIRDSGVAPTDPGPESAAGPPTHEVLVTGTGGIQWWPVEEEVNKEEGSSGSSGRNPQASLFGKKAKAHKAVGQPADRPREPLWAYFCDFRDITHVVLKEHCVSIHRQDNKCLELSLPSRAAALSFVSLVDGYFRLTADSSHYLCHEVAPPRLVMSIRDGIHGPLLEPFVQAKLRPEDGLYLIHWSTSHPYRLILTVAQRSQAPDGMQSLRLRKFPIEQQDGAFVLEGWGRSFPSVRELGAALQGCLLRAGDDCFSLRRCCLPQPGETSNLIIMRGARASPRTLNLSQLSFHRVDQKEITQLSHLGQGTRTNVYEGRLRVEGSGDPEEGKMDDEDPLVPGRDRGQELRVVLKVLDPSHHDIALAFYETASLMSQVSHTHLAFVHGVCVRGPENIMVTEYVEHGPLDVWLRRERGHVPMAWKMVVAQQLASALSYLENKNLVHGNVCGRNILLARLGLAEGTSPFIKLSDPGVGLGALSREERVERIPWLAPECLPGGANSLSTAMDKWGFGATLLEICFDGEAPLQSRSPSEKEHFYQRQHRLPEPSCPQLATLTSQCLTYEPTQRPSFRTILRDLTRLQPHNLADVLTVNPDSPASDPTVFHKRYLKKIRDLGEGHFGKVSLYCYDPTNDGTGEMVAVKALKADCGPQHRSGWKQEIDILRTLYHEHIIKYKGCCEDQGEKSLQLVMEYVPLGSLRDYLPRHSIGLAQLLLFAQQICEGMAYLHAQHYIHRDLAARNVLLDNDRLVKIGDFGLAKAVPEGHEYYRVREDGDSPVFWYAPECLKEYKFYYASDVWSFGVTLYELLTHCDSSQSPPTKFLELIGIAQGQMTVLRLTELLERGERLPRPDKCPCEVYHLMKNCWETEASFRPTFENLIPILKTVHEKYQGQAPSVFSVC
Description: as §1, §2
In TYK2 reaction system, the concentration of ATP was 2 μM and the concentration of TYK2 protein was 0.2 ng/μL.

JAK2 = JAK2 (Homo sapiens, UniProt O60674); assay: JAK kinase activity, homogeneous time-resolved fluorescence (JAK2 reaction system); details: ATP 2 μM, JAK2 protein 0.01 ng/μL
JAK2, sequence (O60674 whole entry): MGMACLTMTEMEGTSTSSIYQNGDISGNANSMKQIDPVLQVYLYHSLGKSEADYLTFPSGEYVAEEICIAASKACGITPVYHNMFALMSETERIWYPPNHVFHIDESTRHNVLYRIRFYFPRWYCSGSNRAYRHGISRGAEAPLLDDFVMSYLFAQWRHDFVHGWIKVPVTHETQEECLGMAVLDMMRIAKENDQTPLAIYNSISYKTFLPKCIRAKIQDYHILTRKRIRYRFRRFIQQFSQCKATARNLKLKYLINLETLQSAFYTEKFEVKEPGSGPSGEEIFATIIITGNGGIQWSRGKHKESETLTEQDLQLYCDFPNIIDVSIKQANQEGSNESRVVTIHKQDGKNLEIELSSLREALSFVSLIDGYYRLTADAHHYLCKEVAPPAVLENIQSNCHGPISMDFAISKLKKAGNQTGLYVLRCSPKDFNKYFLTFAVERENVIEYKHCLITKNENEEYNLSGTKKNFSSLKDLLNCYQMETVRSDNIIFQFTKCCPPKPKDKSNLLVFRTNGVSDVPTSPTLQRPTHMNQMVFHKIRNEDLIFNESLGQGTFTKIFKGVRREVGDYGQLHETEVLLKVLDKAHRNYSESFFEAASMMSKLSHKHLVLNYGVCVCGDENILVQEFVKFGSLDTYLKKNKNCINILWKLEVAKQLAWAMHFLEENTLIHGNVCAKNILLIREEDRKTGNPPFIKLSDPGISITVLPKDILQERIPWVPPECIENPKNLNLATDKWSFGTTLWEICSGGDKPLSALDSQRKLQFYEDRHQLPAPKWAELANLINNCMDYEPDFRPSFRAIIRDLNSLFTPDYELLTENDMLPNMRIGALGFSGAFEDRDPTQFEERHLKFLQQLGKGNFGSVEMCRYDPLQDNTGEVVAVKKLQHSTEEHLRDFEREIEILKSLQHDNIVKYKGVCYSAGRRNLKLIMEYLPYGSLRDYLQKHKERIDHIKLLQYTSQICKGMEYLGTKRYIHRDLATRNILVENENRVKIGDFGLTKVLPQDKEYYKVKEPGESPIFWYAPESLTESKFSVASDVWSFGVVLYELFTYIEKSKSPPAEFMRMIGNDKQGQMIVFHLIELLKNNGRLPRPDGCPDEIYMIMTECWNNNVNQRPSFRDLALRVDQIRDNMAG
Description: as §1, §2
In JAK2 reaction system, the concentration of ATP was 2 μM, and the concentration of JAK2 protein was 0.01 ng/μL.

JAK3 = biological target: T1, JAK3 (Homo sapiens, UniProt P52333); assay: JAK kinase activity, homogeneous time-resolved fluorescence (JAK3 reaction system); details: ATP 2 μM, JAK3 protein 0.04 ng/μL; read-out: JAK 3 activity
T1 sequence (P52333 1-1124): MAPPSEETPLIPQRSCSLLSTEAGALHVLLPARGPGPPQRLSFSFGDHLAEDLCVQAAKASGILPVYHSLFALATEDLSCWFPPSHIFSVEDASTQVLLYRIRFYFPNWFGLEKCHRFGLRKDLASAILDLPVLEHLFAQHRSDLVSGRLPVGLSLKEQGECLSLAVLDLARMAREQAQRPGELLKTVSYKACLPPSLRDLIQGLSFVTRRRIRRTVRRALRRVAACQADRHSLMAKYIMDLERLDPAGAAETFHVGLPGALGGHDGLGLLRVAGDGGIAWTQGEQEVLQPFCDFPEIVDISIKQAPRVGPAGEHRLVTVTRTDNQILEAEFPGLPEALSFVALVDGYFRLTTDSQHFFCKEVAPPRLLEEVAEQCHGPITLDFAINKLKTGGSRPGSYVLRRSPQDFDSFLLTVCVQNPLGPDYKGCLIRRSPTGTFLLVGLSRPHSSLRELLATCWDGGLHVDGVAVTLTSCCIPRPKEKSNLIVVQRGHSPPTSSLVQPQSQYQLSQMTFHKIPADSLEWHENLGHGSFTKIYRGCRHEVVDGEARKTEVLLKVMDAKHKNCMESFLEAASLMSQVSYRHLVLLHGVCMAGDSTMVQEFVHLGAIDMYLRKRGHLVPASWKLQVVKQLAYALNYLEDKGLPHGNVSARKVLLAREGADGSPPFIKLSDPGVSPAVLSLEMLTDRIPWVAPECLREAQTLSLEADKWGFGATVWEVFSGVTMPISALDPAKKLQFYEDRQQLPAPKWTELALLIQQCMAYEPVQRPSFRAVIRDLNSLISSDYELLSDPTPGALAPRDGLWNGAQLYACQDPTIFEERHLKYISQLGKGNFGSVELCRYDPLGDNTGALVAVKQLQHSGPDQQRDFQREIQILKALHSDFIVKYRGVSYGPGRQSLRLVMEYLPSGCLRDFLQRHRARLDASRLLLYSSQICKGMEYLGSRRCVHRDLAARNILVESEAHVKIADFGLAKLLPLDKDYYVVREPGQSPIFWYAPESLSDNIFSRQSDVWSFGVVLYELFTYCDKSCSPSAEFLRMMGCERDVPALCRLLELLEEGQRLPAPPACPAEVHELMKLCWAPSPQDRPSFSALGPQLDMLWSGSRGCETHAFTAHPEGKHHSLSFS
Description: as §1, §2
In JAK3 reaction system, the concentration of ATP was 2 μM, and the concentration of JAK3 protein was 0.04 ng/μL.

JAK1, sequence (P23458 whole entry): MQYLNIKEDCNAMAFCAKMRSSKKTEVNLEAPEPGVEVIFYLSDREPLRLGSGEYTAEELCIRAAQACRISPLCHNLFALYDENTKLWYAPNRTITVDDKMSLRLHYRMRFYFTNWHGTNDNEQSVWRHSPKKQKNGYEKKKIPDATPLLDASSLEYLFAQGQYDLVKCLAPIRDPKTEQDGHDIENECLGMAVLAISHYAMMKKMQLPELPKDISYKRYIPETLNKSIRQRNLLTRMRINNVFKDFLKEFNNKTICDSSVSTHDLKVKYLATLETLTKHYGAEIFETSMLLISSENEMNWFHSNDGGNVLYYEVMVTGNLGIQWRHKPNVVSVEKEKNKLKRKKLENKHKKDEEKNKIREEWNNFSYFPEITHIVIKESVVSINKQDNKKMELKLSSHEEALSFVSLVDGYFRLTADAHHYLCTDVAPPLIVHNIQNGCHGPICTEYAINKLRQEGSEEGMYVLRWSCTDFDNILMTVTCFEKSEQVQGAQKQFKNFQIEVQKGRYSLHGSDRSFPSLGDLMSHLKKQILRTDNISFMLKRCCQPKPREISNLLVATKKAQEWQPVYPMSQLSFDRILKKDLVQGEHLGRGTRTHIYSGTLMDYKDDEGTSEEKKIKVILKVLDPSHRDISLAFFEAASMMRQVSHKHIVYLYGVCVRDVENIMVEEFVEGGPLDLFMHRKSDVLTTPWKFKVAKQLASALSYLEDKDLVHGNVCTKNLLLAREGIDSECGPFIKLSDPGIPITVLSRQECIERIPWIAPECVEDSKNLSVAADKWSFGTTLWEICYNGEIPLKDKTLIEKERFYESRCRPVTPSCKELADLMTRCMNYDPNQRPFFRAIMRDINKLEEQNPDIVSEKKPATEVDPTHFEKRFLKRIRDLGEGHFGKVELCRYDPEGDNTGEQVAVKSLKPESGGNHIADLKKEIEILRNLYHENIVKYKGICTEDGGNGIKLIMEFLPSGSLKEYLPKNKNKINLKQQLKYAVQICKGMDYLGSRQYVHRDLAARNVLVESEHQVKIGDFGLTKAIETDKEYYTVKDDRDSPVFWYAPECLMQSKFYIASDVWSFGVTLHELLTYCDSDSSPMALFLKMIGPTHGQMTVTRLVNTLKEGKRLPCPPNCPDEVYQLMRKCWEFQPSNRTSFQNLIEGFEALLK

Compound	IC50 (JAK1) [nM]	IC50 (TYK2) [nM]	IC50 (JAK2) [nM]	IC50 (JAK3) [nM]
Cc1cnc2nc1NCCCCCNC(=O)c1c(F)cc(cc1F)-c1cnc(F)c(c1)N2 [Compound 39, 1^3,1^5,2^6-trifluoro-4^5-methyl-3,5,11-triaza-4(2,4)-pyrimidina-2(3,5)-pyridina-1(1,4)-benzenacyclododecaphan-12-one]	1000 to 10000	> 10000	101 to 1000	1000 to 10000
Cc1cnc2nc1NCCCCCNC(=O)c1ccc(cc1C(=O)NCc1ccccc1)-c1cnc(F)c(c1)N2 [Compound 41, N-benzyl-2^6-fluoro-4^5-methyl-12-oxo-3,5,11-triaza-4(2,4)-pyrimidina-2(3,5)-pyridina-1(1,4)-benzenacyclododecaphane-1^3-formamide]	1000 to 10000	> 10000	1000 to 10000	1000 to 10000
O=C1NCCOCc2cccc(c2)Nc2nc(ncc2F)Nc2cc(cnc2F)-c2ccc1cc2 [Compound 16, 2^6,4^5-difluoro-oxa-3,5,11-triaza-4(2,4)-pyrimidina-2(3,5)-pyridina-1(1,4),6(1,3)-dibenzenacyclododecaphan-12-one]	11 to 100	1000 to 10000	11 to 100	11 to 100
Cc1cnc2nc1NCCCCCNC(=O)c1ccc(cc1C(=O)Nc1ccccc1)-c1cnc(F)c(c1)N2 [Compound 42, 2^6-fluoro-4^5-methyl-12-oxo-N-phenyl-3,5,11-triaza-4(2,4)-pyrimidina-2(3,5)-pyridina-1(1,4)-benzenacyclododecaphane-1^3-formamide]	1000 to 10000	> 10000	1000 to 10000	1000 to 10000
O=C1NCCCCCNc2nc(ncc2F)Nc2cc(cnc2F)-c2ccc1cc2 [Compound 4, 2^6,4^5-difluoro-3,5,11-triaza-4(2,4)-pyrimidina-2(3,5)-pyridina-1(1,4)-benzenacyclododecaphan-12-one]	1000 to 10000	> 10000	101 to 1000	1000 to 10000
Cc1cc2ccc1C(=O)NCCCCCNc1nc(ncc1C)Nc1cc-2cnc1F [Compound 11, 2^6-fluoro-l^3,4^5-dimethyl-3,5,11-triaza-4(2,4)-pyrimidina-2(3,5)-pyridina-1(1,4)-benzenacyclododecaphan-12-one]	101 to 1000	1000 to 10000	101 to 1000	1000 to 10000

Second part, the compound after the results:

IC50 (JAK1) [nM]	IC50 (TYK2) [nM]	IC50 (JAK2) [nM]	IC50 (JAK3) [nM]	Compound
11 to 100	1000 to 10000	11 to 100	101 to 1000	Cc1cnc2nc1Nc1ccccc1CCCNC(=O)c1ccc(cc1F)-c1cnc(F)c(c1)N2 [Compound 32, 1^3,2^6-difluoro-4^5-methyl-3,5,10-triaza-4(2,4)-pyridina-1(5,2),2(3,5)-dipyridina-6(1,2)-benzenacycloundecaphan-11-one]
11 to 100	101 to 1000	11 to 100	101 to 1000	Cc1cnc2nc1Nc1cc(ccc1O)CCNC(=O)c1ccc(cc1)-c1cnc(F)c(c1)N2 [Compound 48, 2^6-fluoro-6^6-hydroxy-4^5-methyl-3,5,9-triaza-4(2,4)-pyrimidina-2(3,5)-pyridina-1-2,(1,4),6(1,3)-dibenzenacyclodecaphan-10-one]
< 10	101 to 1000	< 10	11 to 100	Cc1cnc2nc1Nc1cc(F)cc(c1)CCNC(=O)c1ccc(cc1S(C)(=O)=O)-c1cnc(F)c(c1)N2 [Compound 46, 2^6,6^5-difluoro-4^5-methyl-1^3(methylsulfonyl)-3,5,9-triaza-4(2,4)-pyrimidina-2(3,5)-pyridina-1(1,4),6(1,3)-dibenzenacyclodecaphan-10-one]
11 to 100	1000 to 10000	11 to 100	101 to 1000	Cc1cnc2nc1Nc1cc(ccc1F)CCCNC(=O)c1ncc(cc1F)-c1cnc(F)c(c1)N2 [Compound 45, 1^3,2^6,6^6-trifluoro-4^5-methyl-3,5,10-triaza-4(2,4)-pyrimidina-1(5,2),2(3,5)-bipyridina-6(1,3)-benzenacycloundecaphan-11-one]
11 to 100	1000 to 10000	101 to 1000	101 to 1000	Cc1cnc2nc1Nc1cccc(c1)COCCCC(=O)N1CCN(CC1)c1cnc(F)c(c1)N2 [Compound 15, 2^6-fluoro-4^5-methyl-8-oxa-3,5-diaza-4(2,4)-pyrimidina-1(1,4)-piperazina-2(3,5)-pyridina-6(1,3)-benzenacyclododecaphan-12-one]
< 10	11 to 100	< 10	< 10	Cc1cnc2nc1Nc1cccc(c1)CCNC(=O)c1ccc(cc1)-c1cnc(F)c(c1)N2 [Compound 22, 2^6-fluoro-4^5-methyl-3,5,9-triaza-4(2,4)-pyrimidina-2(3,5)-pyridina-1(1,4),6(1,3)-dibenzenacyclodecaphan-10-one]
